From patent publication US11680070B2, “Thieno[2,3-c]pyridazin-4(1H)-one derivative and application thereof” (MEDSHINE DISCOVERY INC., priority 2018, dated 2023)

Key:
[1] = molecular target: human acetyl-CoA carboxylase 1 (hACC1) (Homo sapiens, UniProt Q13085); test: In vitro ACC enzyme inhibition (ADP luminescence), hACC1; format: biochemical; settings: human ACC1 enzyme; 15 min pre-incubation, 1 hour reaction at room temperature
Procedure: (§1) The IC50 value was determined to evaluate the ability of the test compounds to inhibit acetyl-CoA carboxylase (ACC).
(§2) Protein: human acetyl-CoA carboxylase 1 (hACC1) and human acetyl-CoA carboxylase 2 (hACC2).
(§3) Cofactor: acetyl coenzyme A, ATP
(§4) Activator: potassium citrate
(§5) 1. 1 time of the enzyme/substrate/cofactor was added to the wells of the well plate.
(§6) 2. According to Acoustic technology, the solutions of the compounds in DMSO were added to the above enzyme mixture and the mixture was pre-incubated for 15 minutes.
(§7) 3. ATP was added to initiate the reaction and the mixture was shaken until thoroughly mixed.
(§8) 4. The mixture was incubated for 1 hour at room temperature.
(§9) 5. After quenching the reaction, the incubation continued for 40 minutes.
(§10) 6. After adding the detection reagents, the mixture was incubated for 30 minutes.
(§11) 8. Data analysis: based on the standard curve of ADP, the luminescence was converted into ADP product concentration and the enzyme activity was calculated. Graphpad Prism software was used to fit the curve to obtain the IC50 value.

[2] = molecular target: human acetyl-CoA carboxylase 2 (hACC2) (Homo sapiens, UniProt O00763); test: In vitro ACC enzyme inhibition (ADP luminescence), hACC2; format: biochemical; settings: human ACC2 enzyme; 15 min pre-incubation, 1 hour reaction at room temperature
Procedure: as §1, §2, §3, §4, §5, §6, §7, §8, §9, §10, §11

[3] = Pharmacokinetics in C57BL/6 mice (iv and oral); format: in vivo; settings: mouse, male C57BL/6 mice, plasma; for AUC(0-t) / clearance / half-life: iv 2.0 mg/kg, oral 10 mg/kg (route not given); for half-life: read-out: Half-life T1/2 (converted); for bioavailability: oral 10 mg/kg vs iv 2.0 mg/kg, read-out: Bioavailability F
Procedure: Testing the pharmacokinetics characteristics of the compounds in C57BL/6 mice
C57BL/6 mice (male, 18-30 g, 7-9 weeks, Shanghai Lingchang Biotechnology Co., Ltd.)
The clear solution of the test compounds (0.5 mg/mL in 10% DMSO, 10% polyethylene glycol stearate, 80% water) was injected via tail vein into 4 male C57BL/6 mice (overnight fasted, 7-9 weeks), at a dose of 2.0 mg/kg. The suspensions or clear solutions of the test compounds (1 mg/mL in 10% PEG400, 90% (0.5% methylcellulose+0.2% Tween 80)) were administrated by oral gavage to 4 male C57BL/6 mice (overnight fasted, 7-9 weeks), at a dose of 10 mg/kg.
Two mice were set in each group and subjected to blood sampling alternatively, 4 to 5 time points per mouse. At 0.0833h (IV group only), 0.25 h, 0.5 h, 1.0 h, 2.0 h, 4.0 h, 6.0 h, 8.0 h, and 24 h after the intravenous or oral administration, about 30 μL of blood was collected by saphenous vein puncture and added into an anticoagulation tube with EDTA-K2, and the plasma was isolated by centrifugation. The drug plasma concentration was determined by LC-MS/MS, and WinNonlin™ Version 6.3 (Pharsight, Mountain View, Calif.) pharmacokinetic software was used to calculate relevant pharmacokinetic parameters using the non-compartmental model linear logarithmic trapezoidal method.

[4] = tested on: NASH mouse model induced by HFD+CCl4; test: In vivo pharmacodynamic study in NASH mouse model induced by HFD+CCl4; settings: HFD+CCl4 mice; oral gavage QD Day 0-27; WX004B 0.5, 1, 3 mg/kg; reference I-181 3 mg/kg
Description: The objective of this research is to study the effect of the compound on improving NASH and liver fibrosis in HFD+CCl4 mouse model, with 1-181 as the reference compound.
1-181 is an Acetyl-CoA carboxylase inhibitor and is currently undergoing a phase II clinical study on non-alcoholic fatty liver disease (NAFLD). The HFD+CCl4 mouse model used in this study is an animal model simulating human non-alcoholic fatty liver disease evolving into NASH, high-fat diet causes the fat accumulation and steatosis in liver cells; CCl4 (intraperitoneal injection, twice a week) simulates the “second hit” of liver injury.
The modeling for this experiment included two steps of high-fat feed and CCl4 induction. Firstly, the mice were fed with high-fat feed to induce non-alcoholic fatty liver, and mice with body weight >38 g were selected. The mice were continuously fed with high-fat feed, and simultaneously intraperitoneally injected with 25% CCl4, […], twice a week, for a total of four weeks. The day of starting CCl4 administration was set as day 0, and the time of starting CCl4 administration was set as hour 0. On the day of starting CCl4 administration, the intragastric administration was started, and the administration volume of each group was 5 mL/kg, once a day for 4 weeks (28 days). […]

Sequence of human acetyl-CoA carboxylase 2 (hACC2) (O00763 whole entry): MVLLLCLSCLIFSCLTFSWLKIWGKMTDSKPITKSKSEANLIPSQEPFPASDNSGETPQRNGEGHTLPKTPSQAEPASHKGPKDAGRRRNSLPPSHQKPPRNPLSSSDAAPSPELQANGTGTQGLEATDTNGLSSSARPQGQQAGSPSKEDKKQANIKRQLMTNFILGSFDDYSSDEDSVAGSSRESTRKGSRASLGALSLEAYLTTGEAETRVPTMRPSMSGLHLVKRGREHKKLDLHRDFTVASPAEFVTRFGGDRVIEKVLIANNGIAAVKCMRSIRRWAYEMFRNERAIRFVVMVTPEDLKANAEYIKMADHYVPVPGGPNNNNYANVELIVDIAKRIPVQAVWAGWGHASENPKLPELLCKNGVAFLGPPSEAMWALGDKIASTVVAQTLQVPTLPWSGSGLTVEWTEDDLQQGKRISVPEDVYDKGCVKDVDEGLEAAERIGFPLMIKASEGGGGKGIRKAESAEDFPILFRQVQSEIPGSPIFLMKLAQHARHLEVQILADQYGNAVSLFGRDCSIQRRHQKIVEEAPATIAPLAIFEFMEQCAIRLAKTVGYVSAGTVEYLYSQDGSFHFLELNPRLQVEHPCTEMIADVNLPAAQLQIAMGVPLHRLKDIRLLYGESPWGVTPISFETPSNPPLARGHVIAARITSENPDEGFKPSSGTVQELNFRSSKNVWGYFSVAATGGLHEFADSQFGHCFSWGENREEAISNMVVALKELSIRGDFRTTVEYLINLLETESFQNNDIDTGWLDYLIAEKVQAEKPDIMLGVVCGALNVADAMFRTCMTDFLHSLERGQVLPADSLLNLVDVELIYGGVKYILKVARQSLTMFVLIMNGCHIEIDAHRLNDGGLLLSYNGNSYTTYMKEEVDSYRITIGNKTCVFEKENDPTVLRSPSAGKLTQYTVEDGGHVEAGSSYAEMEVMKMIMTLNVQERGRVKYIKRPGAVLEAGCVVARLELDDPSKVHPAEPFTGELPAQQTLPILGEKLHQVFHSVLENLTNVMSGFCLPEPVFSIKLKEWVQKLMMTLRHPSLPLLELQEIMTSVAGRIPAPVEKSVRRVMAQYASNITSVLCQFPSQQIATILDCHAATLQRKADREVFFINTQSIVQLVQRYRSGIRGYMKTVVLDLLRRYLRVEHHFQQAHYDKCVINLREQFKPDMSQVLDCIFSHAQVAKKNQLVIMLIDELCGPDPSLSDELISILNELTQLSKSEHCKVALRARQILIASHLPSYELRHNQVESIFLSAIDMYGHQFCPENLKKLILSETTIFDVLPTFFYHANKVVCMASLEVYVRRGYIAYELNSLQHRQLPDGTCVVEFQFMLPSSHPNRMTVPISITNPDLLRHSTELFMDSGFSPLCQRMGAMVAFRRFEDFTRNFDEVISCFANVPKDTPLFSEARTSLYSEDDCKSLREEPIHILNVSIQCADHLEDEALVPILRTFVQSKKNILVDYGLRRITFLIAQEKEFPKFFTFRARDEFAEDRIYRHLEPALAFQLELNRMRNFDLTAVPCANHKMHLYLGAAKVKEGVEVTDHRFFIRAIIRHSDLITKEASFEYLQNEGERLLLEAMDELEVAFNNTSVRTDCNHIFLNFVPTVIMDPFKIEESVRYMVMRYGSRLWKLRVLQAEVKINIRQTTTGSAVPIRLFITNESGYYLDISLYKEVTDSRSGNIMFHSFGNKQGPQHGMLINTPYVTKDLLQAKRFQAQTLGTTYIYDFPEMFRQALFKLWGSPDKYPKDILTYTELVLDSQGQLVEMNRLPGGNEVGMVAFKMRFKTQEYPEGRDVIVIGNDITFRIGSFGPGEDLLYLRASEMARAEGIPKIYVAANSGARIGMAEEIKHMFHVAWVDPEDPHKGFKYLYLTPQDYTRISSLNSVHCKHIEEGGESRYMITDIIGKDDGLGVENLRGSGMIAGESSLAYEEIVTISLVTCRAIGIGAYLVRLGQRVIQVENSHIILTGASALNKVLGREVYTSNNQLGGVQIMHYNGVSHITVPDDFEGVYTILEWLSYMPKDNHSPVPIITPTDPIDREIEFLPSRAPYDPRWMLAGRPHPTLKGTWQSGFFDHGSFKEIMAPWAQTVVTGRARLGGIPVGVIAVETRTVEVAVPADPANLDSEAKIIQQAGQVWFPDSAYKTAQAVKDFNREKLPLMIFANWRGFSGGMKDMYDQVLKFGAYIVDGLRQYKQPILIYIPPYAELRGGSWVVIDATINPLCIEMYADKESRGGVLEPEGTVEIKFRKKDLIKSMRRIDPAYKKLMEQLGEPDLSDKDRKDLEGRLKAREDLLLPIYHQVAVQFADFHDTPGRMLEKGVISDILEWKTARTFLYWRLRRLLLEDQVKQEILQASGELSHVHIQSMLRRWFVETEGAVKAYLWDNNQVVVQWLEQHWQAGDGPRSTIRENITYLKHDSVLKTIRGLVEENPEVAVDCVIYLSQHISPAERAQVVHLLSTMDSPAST

SMILES | IC50 [1] [nM] | IC50 [2] [nM] | further results
COc1ccccc1C(Cn1nc(C2(C(=O)O)CCCC2)c(=O)c2c(C)c(-c3ncco3)sc21)OC1CCOCC1 (single isomer, unassigned) [WX001B] | 4.9 | 8 | –
COc1ccccc1C(Cn1nc(CC(=O)O)c(=O)c2c(C)c(-c3ncco3)sc21)OC1CCOCC1 (single isomer, unassigned) [WX003B] | 10.9 | 3.4 | –
COc1ccccc1[C@H](Cn1nc(C(C)(C)C(=O)O)c(=O)c2c(C)c(-c3ncco3)sc21)OC1CCOCC1 [WX004B] | – | – | AUC(0-t) [3]: 7.21 µM·h; Efficacy in NAS (anti-NASH effect) [4]: the same efficacy in both NAS and fibrosis as the reference compound at a higher dose; Efficacy in fibrosis (anti-fibrosis effect) [4]: the same efficacy in both NAS and fibrosis as the reference compound at a higher dose
COc1ccccc1[C@H](Cn1nc(C2(C(=O)O)CCCCC2)c(=O)c2c(C)c(-c3ncco3)sc21)OC1CCOCC1 [WX007B] | 9.1 | 12.6 | –
COc1ccccc1[C@H](Cn1nc(C2(C(=O)O)CCOCC2)c(=O)c2c(C)c(-c3ncco3)sc21)OC1CCOCC1 [WX008B] | 5.3 | 13.9 | clearance [3]: 51.9 mL/min/kg; half-life [3]: 36 min; bioavailability [3]: 5.86%; AUC(0-t) [3]: 0.304 µM·h
COc1ccccc1[C@H](Cn1nc(C(F)(F)C(=O)O)c(=O)c2c(C)c(-c3ncco3)sc21)OC1CCOCC1 [WX009B] | 5.6 | 11 | clearance [3]: 92.1 mL/min/kg; half-life [3]: 36.6 min; bioavailability [3]: 1.26%; AUC(0-t) [3]: 0.04 µM·h
COc1ccccc1C(Cn1nc(C2(C(=O)O)CCNCC2)c(=O)c2c(C)c(-c3ncco3)sc21)OC1CCOCC1 (stereo not drawn) [WX010] | 83.9 | 70.7 | –
COc1ccc(F)cc1[C@H](Cn1nc(C(C)(C)C(=O)O)c(=O)c2c(C)c(-c3ncco3)sc21)OC1CCOCC1 [WX016B] | 11.1 | 4.8 | –

Now from value to compound, other results behind:

IC50 [1] [nM] | IC50 [2] [nM] | SMILES | further results
26 | 10.9 | COc1ccccc1C(Cn1nc(C(C)(C)C(=O)O)c(=O)c2c(C)c(-c3ncco3)sc21)OC1CCN(C(C)=O)CC1 (racemic) [WX011] | –
14.2 | 5.7 | COc1ccccc1C(Cn1nc(C(C)(C)C(=O)O)c(=O)c2c(C)c(-c3ncco3)sc21)OC1CCN(S(C)(=O)=O)CC1 (racemic) [WX012] | –
20.2 | 7 | COC(=O)N1CCC(OC(Cn2nc(C(C)(C)C(=O)O)c(=O)c3c(C)c(-c4ncco4)sc32)c2ccccc2OC)CC1 (racemic) [WX015] | –
53.6 | 8.7 | COc1ccccc1C(Cn1nc(CC(=O)O)c(=O)c2c(C)c(-c3ncco3)sc21)OC1CCOCC1 (stereo not drawn) [WX002] | –
46.6 | 45 | COc1ccccc1C(Cn1nc(C2(C(=O)O)CC2)c(=O)c2c(C)c(-c3ncco3)sc21)OC1CCOCC1 (stereo not drawn) [WX005] | –
20.3 | 22.1 | COc1ccccc1C(Cn1nc(C2(C(=O)O)CCC2)c(=O)c2c(C)c(-c3ncco3)sc21)OC1CCOCC1 (stereo not drawn) [WX006] | –
26 | 7.2 | COc1ccccc1C(Cn1nc(C(C)(C)C(=O)O)c(=O)c2c(C)c(-c3ncco3)sc21)OC1CCN(C(=O)OC(C)(C)C)CC1 (stereo not drawn) [WX014] | –
